These results are taken from patent US6221864A, “Prophylactic or therapeutic agent for diseases attributable to infection with helicobacters” (priority 1997, dated 2001).

Values after ≈ are worked out from the molar mass of the structure shown.

Test [1] deals with H. pylori clinically isolated strains (18 strains). The experiment in a line: In vitro antibacterial activity against H. pylori clinically isolated strains (agar dilution MIC). The test is classed as cell-based. Particulars: Helicobacter pylori, 18 clinically isolated strains, agar plate, 8% CO2, 37° C., 3 to 4 days. The protocol: Clinically isolated strains (18 strains) were cultured using 5% horse serum under microaerophilic conditions at 37° C. for 72 hours and diluted with Brucella broth to give a bacterial solution at about 10^6 cells/ml. The diluted bacterial solution was inoculated with a microplanter on an agar plate containing 2-fold dilution concentration series of test compound and cultured under 8% CO2 at 37° C. for 3 to 4 days. Thereafter, the minimum growth inhibitory concentration (MIC) was measured. MIC50 (minimum concentration to inhibit growth in 50% of the test strains) and MIC90 (minimum concentration to inhibit growth in 90% of the test strains) were calculated from the obtained values.

For a further test, the system named is H. pylori. The experiment in a line: MIC given in Table 1 beside eradication in H. pylori-infected Mongolian gerbils. Particulars: Helicobacter pylori. The test is classed as cell-based. On the procedure: Clinically isolated strains (18 strains) were cultured using 5% horse serum under microaerophilic conditions at 37° C. for 72 hours and diluted with Brucella broth to give a bacterial solution at about 10^6 cells/ml. The diluted bacterial solution was inoculated with a microplanter on an agar plate containing 2-fold dilution concentration series of test compound and cultured under 8% CO2 at 37° C. for 3 to 4 days. Thereafter, the minimum growth inhibitory concentration (MIC) was measured. MIC50 (minimum concentration to inhibit growth in 50% of the test strains) and MIC90 (minimum concentration to inhibit growth in 90% of the test strains) were calculated from the obtained values. To a male 7-week-old Mongolian gerbil after fasting for about 20 hours, was inoculated orally a culture broth of H. pylori ATCC 43504 Type strain upon 24 hours of culture. After administration of the culture broth, the Mongolian gerbil was fasted and deprived of water for about 4 hours, after which a normal solid feed and drinking water were given to Mongolian gerbils infected with H. pylori. Starting from 6 weeks after infection, the drug was orally administered twice a day for 7 days. […] The medium was incubated under CO2 and the colonies of H. pylori were counted. A case where colonies were not detected was evaluated as the case of bacterial eradication.

Test [2] has as its system H. pylori ATCC 43504 Type strain. The experiment in a line: Bacterial eradication in H. pylori-infected Mongolian gerbils, drug orally twice a day for 7 days. Particulars: bid, oral. The test is classed as in vivo, Mongolian gerbil. The protocol:
To a male 7-week-old Mongolian gerbil after fasting for about 20 hours, was inoculated orally a culture broth of H. pylori ATCC 43504 Type strain upon 24 hours of culture. After administration of the culture broth, the Mongolian gerbil was fasted and deprived of water for about 4 hours, after which a normal solid feed and drinking water were given to Mongolian gerbils infected with H. pylori. Starting from 6 weeks after infection, the drug was orally administered twice a day for 7 days. After completion of the drug administration, Mongolian gerbils were sacrificed at day 3. The stomach was excised and incised along greater curvature, and its content was removed. The stomach was homogenized in 10 ml of phosphate buffer--physiological saline in a homogenizer. The homogenate was appropriately diluted with the same buffer and 0.1 ml of sample was plated onto H. pylori selective medium. The medium was incubated under CO2 and the colonies of H. pylori were counted. A case where colonies were not detected was evaluated as the case of bacterial eradication.

The test system is the same in test [3]. In words: Bacterial eradication in H. pylori-infected Mongolian gerbils, alone or combined with famotidine, twice a day for 3 days. The test is classed as in vivo, Mongolian gerbil. Particulars: bid. The protocol:
To a male 7-week-old Mongolian gerbil after fasting for about 20 hours, was inoculated orally a culture broth of H. pylori ATCC 43504 Type strain upon 24 hours of culture. After administration of the culture broth, the Mongolian gerbil was fasted and deprived of water for about 4 hours, after which a normal solid feed and drinking water were given to Mongolian gerbils infected with H. pylori. Starting from 6 weeks after infection, the compound of the present invention and famotidine which is a histamine H2 antagonist were administered alone or in combination twice a day for 3 days. The compound of the present invention was administered orally and famotidine was subcutaneously administered immediately before administration of the compound of the present invention. After completion of the drug administration, Mongolian gerbils were sacrificed at day 3. The stomach was excised and incised along greater curvature and its content was removed. The stomach was homogenized in 10 ml of phosphate buffer--physiological saline. […] The medium was incubated under CO2 and the colonies of H. pylori were counted. A case where colonies were not detected was evaluated as the case of bacterial eradication. As a control, phosphate buffer--physiological saline was used.

Consider `COc1c(N2CCO[C@@H](CN(C)C)C2)c(F)cc2c(=O)c(C(=O)O)cn(C3CC3)c12` [Y-34867, (S)-1-cyclopropyl-1,4-dihydro-7-[2-(N,N-dimethylaminomethyl)morpholino]-6-fluoro-8-methoxy-4-oxoquinoline-3-carboxylic acid], for which the MIC50 in test [1] (read-out: MIC50 (minimum concentration to inhibit growth in 50% of the test strains)) was 0.025 µg/mL (≈ 0.0596 µM). Further, in test [1] (read-out: MIC90 (minimum concentration to inhibit growth in 90% of the test strains)), the MIC90 was 0.05 µg/mL (≈ 0.119 µM). Also, in the test with H. pylori, it took 0.025 µg/mL (≈ 0.0596 µM) to inhibit growth (MIC). The Eradication rate was 0% in test [2] (0.3 mg/kg); 80% in test [2] (1.0 mg/kg); 100% in test [2] (3.0 mg/kg); 0% in test [3] (0.3 mg/kg, oral); 60% in test [3] (1.0 mg/kg, oral); 100% in test [3] (3.0 mg/kg, oral). Also, the “bacterial eradication of H. pylori (in words)” value in test [2] was “evident bacterial eradication of H. pylori”. Besides, the “visual and histopathological repair of inflammatory state” value in test [2] and in test [3] was “promoted” in each case. In test [3] (with famotidine subcutaneous), the “bacterial eradication effect when concurrently administered with famotidine (in words)” value is on record as “the effect is enforced”. The “bacterial eradication effect by single administration (in words)” value in test [3] (without famotidine) was “superior bacterial eradication effect”.

`CC1(C)S[C@@H]2[C@H](NC(=O)[C@H](N)c3ccc(O)cc3)C(=O)N2[C@H]1C(=O)O` [amoxicillin, reference compound]: the MIC (usually the lowest concentration that inhibits growth of the organism) against H. pylori is 0.025 µg/mL (≈ 0.0684 µM). In addition, the Eradication rate in test [2] (3.0 mg/kg) is recorded as 0%; in test [2] (10.0 mg/kg), 100%.

Turning to `NC(N)=Nc1nc(CSCCC(N)=NS(N)(=O)=O)cs1` [famotidine, reference compound], in test [3] (100 mg/kg, subcutaneous), the Eradication rate is 0%.
